Tests used:
[1] = tested on: Tet-induced NS/PCs expressing yCD-UPRT; test: Cell death induction by Dox and 5-FC added to the medium; type: cell-based, human; settings: 1 μg/ml Dox and 1 μg/ml 5-FC added to the medium
Experimental: Differentiation induction from the Tet-induced iPS cells expressing yCD-UPRT to NS/PCs was performed to obtain secondary and tertiary Tet-induced NS/PCs expressing yCD-UPRT.

[2] = tested on: NS/PCs expressing yCD-UPRT (TSCs (2), GAPDH gene region, CRISPR/Cas9); test: Cell death induction by 5-FC added to the medium; type: cell-based, human; settings: 1 μg/ml 5-FC added to the medium
Experimental: Differentiation induction from iPS cells in which yCD-UPRT was incorporated into the GAPDH gene region to NS/PCs was performed to obtain secondary to quinary NS/PCs (TSCs (2)). Culture was performed with 2 μg/ml blasticidin S always added to the medium. It was confirmed that the cell death of the NS/PCs expressing yCD-UPRT was induced by adding 1 μg/ml 5-FC to the medium.

[3] = tested on: human glioma cells (U87); test: Suicide gene cell therapy with Tet-induced TSCs (3) expressing yCD-UPRT, mixture transplantation model; type: in vivo, mouse; settings: control group 2: TSC (−)/5-FC (+)/Dox (+), only U87-ffLuc transplanted
Experimental: First, 1×10^5 cells/2 μl U87-ffLuc and 5×10^5 cells/2 μl TSCs (3) (Tet-induced yCD-UPRT was introduced into iPS cells with the lentiviral vector) were mixed and stereotactically transplanted to the right striate body (2 mm away from the anterior fontanel to the right and 3 mm deep from the brain surface) of each T cell-deficient mouse (female BALB/c nude mouse, 20 g, 6 w) subjected to general anesthesia. Then, 500 μl of 5-FC (10 mg/ml) was intraperitoneally administered once per day for 2 weeks from the next day (treated group 1: TSC (+)/5-FC (+)/Dox (+), n=7). Next, 500 μl of 1 M PBS was administered to a control group 1 for 2 weeks in the same way (control group 1: TSC (+)/[…], n=9). A group to which only U87-ffLuc was transplanted was also generated as another control group, and 500 μl of 5-FC (10 mg/ml) was intraperitoneally administered to this once per day for 2 weeks (control group 2: TSC (−)/5-FC (+)/Dox (+), n=4). Feed containing 200 mg/kg of Dox was orally ingested. A method for evaluating tumors, the analysis of survival curves and the like were all performed in the same way as the above. […]
Survival analysis was performed, while the luminescence imaging analysis (IVIS) of the tumors was performed chronologically. […]

[4] = tested on: human glioma cells (U87); test: Suicide gene cell therapy with TSCs (1) expressing yCD-UPRT, transplantation model after tumor formation; type: in vivo; settings: control group 2: TSC (−)/5FC (+) 5 mg/day, only U87 transplanted
Experimental: First, 1×10^4 cells/2 μl U87-ffLuc was transplanted to the right striate body (2 mm away from the anterior fontanel to the right and 3 mm deep from the brain surface) of each T cell-deficient mouse (female BALB/c nude mouse, 20 g, 6 w) subjected to general anesthesia, and 1×10^6 cells/2 μl TSCs expressing yCD-UPRT (yCD-UPRT is introduced into NS/PCs with the lentiviral vector) were stereotactically transplanted to the same site 5 days later. The take of tumor cells was confirmed 2 days later with an IVIS, that is, an in vivo imaging system, and 500 μl of 5-FC (10 mg/ml) was then intraperitoneally administered to a treated group once per day for 2 weeks (TSC (+)/5-FC (+) 5 mg/day, n=9). Next, 500 μl of 1 M PBS was administered to a control group 1 for 2 weeks in the same way (control group 1: TSC (+)/5-FC (−), n=9). A group to which only U87-ffLuc was transplanted was also generated as another control group, and 500 μl of 5-FC (10 mg/ml) was intraperitoneally administered to this once per day for 2 weeks (control group 2: TSC (−)/5-FC (+) 5 mg/day, n=3). […]
(§1) The survival analysis was performed while the luminescence imaging analysis (IVIS) of tumors was performed chronologically. […]

[5] = tested on: human glioma cells (U87); test: Suicide gene cell therapy with TSCs (1) expressing yCD-UPRT, mixture transplantation model; type: in vivo; settings: control group 2: TSC (−)/5FC (+) 5 mg/day, only U87 transplanted
[6] = tested on: Tet-induced iPS cells expressing yCD-UPRT; test: Cell death induction by Dox and 5-FC added to the medium; type: cell-based, human; settings: 1 μg/ml doxycycline (Dox) and 1 μg/ml 5-FC added to the medium
Experimental: Human iPS cells were infected with the CSIV-yCD-UPRT-TRE-EF-KT lentiviral vector at an MOI of around 15 and cultured, the clones were then sorted with a cell sorter to obtain an iPS cell line expressing hKO1 steadily and highly. It was confirmed that the cell death of the Tet-induced iPS cells expressing yCD-UPRT was induced by adding 1 μg/ml doxycycline (Dox) and 1 μg/ml 5-FC to the medium.

[7] = tested on: human glioma cells (U87); test: Suicide gene cell therapy with TSCs expressing yCD-UPRT with CRISPR/Cas9, transplantation model after tumor formation; type: in vivo, mouse; settings: control group 2: TSC (−)/5FC (+), only U87 transplanted
Experimental: First, 1×10^4 cells/2 μl U87-ffLuc was transplanted to the right striate body (2 mm away from the anterior fontanel to the right and 3 mm deep from the brain surface) of each T cell-deficient mouse (female BALB/c nude mouse, 20 g, 6 w) subjected to general anesthesia, and 1×10^6 cells/2 μl TSCs expressing yCD-UPRT (yCD-UPRT is introduced into iPS cells with CRISPR/Cas9) were stereotactically transplanted to the same site 5 days later. The take of tumor cells was confirmed 2 days later with an IVIS, that is, an in vivo imaging system, and further 2 days later, 500 μl of 5-FC (10 mg/ml) was intraperitoneally administered to a treated group once per day for 2 weeks (TSC (+)/5-FC (+), n=8). Then, 500 μl of 1 M PBS was administered to a control group 1 for 2 weeks in the same way (control group 1: TSC/5-FC (−), n=7). A group to which only U87-ffLuc was transplanted was also generated as another control group, and 500 μl of 5-FC (10 mg/ml) was intraperitoneally administered to this once per day for 2 weeks (control group 2: TSC (−)/5-FC (+), n=3).
A method for evaluating tumors, the analysis of survival curves and the like were all performed in the same way as the above. […]
as §1

[8] = tested on: NS/PCs expressing yCD-UPRT (TSCs (1), lentiviral vector); test: Cell death induction by 5-FC added to the medium; type: cell-based, human; settings: 1 μg/ml 5-FC added to the medium
Text: Secondary to quaternary NS/PCs differentiation-induced from the human iPS cells were collected by a centrifuge, disassembled into single cells using TrypLE Select, suspended in NS medium, inoculated into a low adhesive flask at a concentration of 1×10^5 cells/ml, infected with a CSIV-EF-yCD-UPRT-IRES2-hKO1 lentiviral vector at an MOI (multiplicity of infection) of 1 to 2 and cultured for 7 days with the medium replaced every 3 to 4 days. The obtained NS/PCs were infected with the CSIV-EF-yCD-UPRT-IRES2-hKO1 lentiviral vector at an MOI of 1 to 2 in the same way again to prepare therapeutic stem cells (TSCs (1)), that is, NS/PCs expressing yCD-UPRT. It was confirmed that the cell death of the NS/PCs expressing yCD-UPRT was induced by adding 1 μg/ml 5-FC (fluorocytosine) to the medium.

## Nc1nc(=O)[nH]cc1F [5-FC, 5-fluorocytosine]
[1]
  cell death: induced
[2]
  cell death: induced
[3]
  average survival period: 19 days
[4]
  average survival period: 21 days
[5]
  average survival period: 21 days
[6]
  cell death: induced
[7]
  average survival period: 21 days
[8]
  cell death: induced
